The format of series [1] is in vivo. From the text:
In certain other preferred embodiments, the opioid included in the dosage form is a different orally active opioid agonist than hydrocodone. […] Equianalgesic dosages of various opioid analgesics are provided below, and are otherwise known to those skilled in the art, e.g, from Foley, K. “The Treatment of Cancer Pain;” N. Engl.
In certain preferred embodiments, the opioid agonist is hydrocodone. Equianalgesic doses of the remaining opioids mentioned herein (and others) are known to those skilled in the art.

The test system of series [2] is precipitated withdrawal / subjective effects of hydrocodone. The series can be described thus: Example 3: precipitated withdrawal in morphine dependent volunteers receiving hydrocodone 30 mg and naltrexone oral solution. The series is classed as in vivo, human.
Series [3] deals with opioid agonist properties of hydrocodone. Put plainly: Example 1: naltrexone antagonism of hydrocodone 15 mg (VAS drug effect, pupillometry), four-way crossover study.
Method: All treatments were administered under fasted conditions. […] Subjects were randomly assigned to four treatment sequences of the four treatment groups. […] Safety measurements consisted of reports of adverse events, vital signs, abnormal laboratory values, abnormal physical examination and ECG results. Pharmacodynamic parameters (pupil size and Modified Specific Drug Effect Questionnaire) were also assessed.
Pupil Size—Measured by Pupillometry.
The camera was centered in front of the subject's face with 3 inch frame against the lateral orbital rims and the eyes occupying the very top of the field (to minimize upgaze). The subject was asked to look just over the camera body and to fixate on a non-accommodative target in the distance, thereby minimizing the near reflex. With the volunteer fixing in the distance, the photo was taken. All photographs were taken in constant ambient light. The pupillary latency was such that the flash will not affect pupillary diameter. […] Development of the print for the recommended length of time (approximately one (1) minute, varying with ambient temperature) will produce a one-to-one photograph of the volunteer's midface, with the pupils at the top of the print. Horizontal pupillary diameter is then measured using a simple plus magnifier with a built-in reticule calibrated to 0.1 millimeter. Only the left eye was used to measure pupillary effects at each time period specified in the protocol. • b. A Modified Specific Drug Effect Questionnaire. […] The present questionnaire consisted of 10 items rated by the subject 10 minutes prior to blood sampling. The item is related to signs of opiate agonist drugs and was as follows: Subject questions: 1) do you feel any effects from the drugs?, 2) does your skin feel itchy?, 3) do you feel relaxed?, 4) do you feel sleepy?, 5) do you feel drunk?, 6) do you feel nervous?, 7) do you feel full of energy?, 8) do you feel you need to talk?, 9) do you feel sick to your stomach?, 10) do you feel dizzy? The subject then rated the item by placing a vertical mark along a 100 mm visual analog scale (VAS) anchored on one end by “not at all” and at the other end by “an awful lot”.
The conditions of series [4]: cited from earlier work.
The conditions of series [5]: cited from earlier work. The source holds these as a separate data set.
The conditions of series [6]: cited from earlier work. This is another data set of the same source.
The subject of series [7] is effects of morphine-like opioid agonist / heroin. Conditions: cited from earlier work.
For the next series, the system named is mu over delta sites. Conditions: cited from earlier work.
Series [8] relates to opioid agonist effects of hydrocodone. The series can be described thus: Example 2: ratio of oral naltrexone to oral hydrocodone, ten-period crossover (VAS drug effect, pupil diameter). The series is classed as in vivo, human. As to the method: All treatments were administered under fasted conditions. […] Subjects were randomly assigned to ten treatment sequences of the ten treatment groups.
The fast continued for an additional four (4) hours post-dose.
All samples were collected within ±2 minute of the scheduled time.

[9] abbreviates: in comparison to a 15 mg dose of hydrocodone.
Setting [10] is: 15 mg hydrocodone (HYIR/APAP) with increasing doses of naltrexone, range 0 mg-12.8 mg.
Setting [11] is: 6.4-mg naltrexone dose, hydrocodone 15 mg.

Entries after “also recorded” stand apart in the source; their conditions may differ. Like-named read-outs stand apart in the source and are kept apart here.

As to `COc1ccc2c3c1O[C@H]1[C@@H](O)C=C[C@H]4[C@@H](C2)N(C)CC[C@@]341` [Codeine], in series [1] (setting [9]), the “Equianalgesic Doses of Opioids, Calculated Dose” value is given as 90.0 mg.
As for `COc1ccc2c3c1OC1C(=O)CC[C@H]4[C@@H](C2)N(C)CC[C@]314` (stereo partly drawn) [Hydrocodone, 4,5-epoxy-3-methoxy-17-methylmorphinan-6-one], the onset of effect in series [2] (in combination with naltrexone) is under 0.5 h. In addition, the “Equianalgesic Doses of Opioids, Calculated Dose” value in [1] (setting [9]) is on record as 15.0 mg. Moreover, the pupillary constriction entry in series [3] (hydrocodone 15 mg plus naltrexone placebo) is given as “most pupillary constriction”. For the same compound, the “relative analgesic potency versus oral morphine” value in [4] (in vivo, po) is listed as “about two times”.
Regarding `CN1CC[C@]23CCCC[C@H]2[C@H]1Cc1ccc(O)cc13` [Levorphanol], in series [1] (setting [9]), the “Equianalgesic Doses of Opioids, Calculated Dose” value is 1.8 mg.
On to `CCC(=O)C(CC(C)N(C)C)(c1ccccc1)c1ccccc1` (stereo not drawn) [Methadone], for which the “Equianalgesic Doses of Opioids, Calculated Dose” value in series [1] (setting [9]) is given as 9.0 mg.
In the case of `CN1CC[C@]23c4c5ccc(O)c4O[C@H]2[C@@H](O)C=C[C@H]3[C@H]1C5` [Morphine], in series [1] (in vivo), the “Equianalgesic Doses of Opioids, Calculated Dose” value is 27.0 mg.
For the compound `COc1ccc2c3c1O[C@H]1C(=O)CC[C@@]4(O)[C@@H](C2)N(C)CC[C@]314` [Oxycodone], in [1] (setting [9]), the “Equianalgesic Doses of Opioids, Calculated Dose” value is given as 13.5 mg.
With `CC(=O)Nc1ccc(O)cc1` [acetaminophen], the “solubility in water” value in [5] was “only poorly soluble in water”.
For `C[C@H]1[C@H]2Cc3ccc(O)cc3[C@]1(C)CCN2CC1CC1` [cyclazocine], in series [6], the “duration of action after oral doses” value is about 24 h.
As to `CN1CC[C@]23c4c5ccc(O)c4O[C@H]2[C@@H](O)C=C[C@H]3[C@H]1C5.O=S(=O)(O)O` [morphine sulphate], in series [4] (15 mg i.m.), the “oral hydrocodone dose equivalent to 15 mg i.m.” value is given as 30 mg.
As for `C=CCN1CC[C@]23c4c5ccc(O)c4O[C@H]2C(=O)CC[C@@]3(O)[C@H]1C5` [naloxone], in series [7] (1 mg intravenously), the “block of the effect of 25 mg of heroin” value is “completely block”. For the same compound, the “effect on morphine-like opioid agonist effects” value in [7] (0.4-0.8 mg intramuscularly or intravenously in man) is recorded as “prevent or promptly reverse”.
As for `O=C1CC[C@@]2(O)[C@H]3Cc4ccc(O)c5c4[C@@]2(CCN3CC2CC2)[C@H]1O5` [naltrexone], the “blocking action, receptor preference” value in the series on mu over delta sites was “strong preferential blocking action against mu over delta sites”. Also, the “precipitated withdrawal (abstinence)” value in [2] (naltrexone 1 and 2 mg with hydrocodone 30 mg, first protocol) is recorded as “slight abstinence”. Besides, in [2] (physically dependent subjects, hydrocodone 30 mg), the “subjective experience of hydrocodone on addition of naltrexone” value was “decreased the favorable subjective experience of hydrocodone”. In series [8] (setting [10]), the “drug effect VAS score” value is reported as “overall decrease” and the “pupillary constriction / pupil diameter” value is on record as “decrease in pupillary constriction; also recorded: increase in pupil diameter”. For the same compound, the “antagonism of the 15 mg hydrocodone dose” value in series [8] (approximately 0.4 mg naltrexone) is “minimally antagonized”. In addition, in series [8] (naltrexone dosages above 0.4 mg), the “effect of the hydrocodone dose” value is listed as “increasing diminution”. The “effect on opioid agonist effects of 25 mg intravenous heroin challenge” value in [7] (50 mg given 24 hours prior to challenge) is “completely blocked or attenuated”. Further, in series [3] (setting [11]), the “block of the opioid effect (VAS drug effect) of hydrocodone” value is recorded as “not completely blocked” and the “block of the pupillary constriction of hydrocodone” value was “not completely blocked”. Also, the “antagonism of hydrocodone-induced pupillary constriction, relation to dose” value in series [3] (naltrexone 3.2 and 6.4 mg with hydrocodone 15 mg, FIG. 2) is “dose-response effect”. Also, the “antagonism of hydrocodone-induced VAS drug effect, relation to dose” value in series [3] (naltrexone oral solution 3.2 and 6.4 mg with hydrocodone 15 mg, FIG. 1) was “dose-response effect”.
Regarding Meperidine, in series [1] (setting [9]), the “Equianalgesic Doses of Opioids, Calculated Dose” value is listed as 135.0 mg.

Values taken from patent US8936808B1, “Opioid agonist/opioid antagonist/acetaminophen combinations” (Purdue Pharma L.P., priority 1997, dated 2015).
